{
  "source": "patent US20250352555A1",
  "about": "“METHOD OF INCREASING IMMUNE CELL ACTIVATION AND/OR TREATING CANCER USING DIBENZOXAZEPINONES” (VASCULAR THERAPEUTICS PTY LTD, priority 2022, published 2025)",
  "key": {"[1]": {"tested_on": "p38", "assay": "Western blotting time course for p38 phosphorylation, Jurkat T cells", "assay_type": "cell-based, human", "details": "Western blot time course", "protocol": "Western blotting. Cells were treated with compounds and times indicated and total cell lysates were prepared in RIPA buffer. Lysates (10 μg) were resolved by SDS-PAGE and transferred to Immobilon-P polyvinylidene difluoride (PVDF) membranes (Millipore, USA).\nMembranes were blocked with 5% skim milk and incubated with rabbit monoclonal anti-c-Jun (Abcam, cat. no. ab32137; mouse, rat and human reactive) antibody, rabbit monoclonal anti-PD-1 (Abcam, cat. no. ab214421) antibody, mouse monoclonal β-actin antibody (Sigma-Aldrich, cat. no. A5316), anti-phospho-SAPK/JNK (Thr^183/Tyr^185) (98F2) (CST, cat. no. 4671) antibody, anti-phospho-p44/42 MAPK (ERK1/2) (Thr^202/Tyr^204) (D13.14.4E) (CST, cat. no. 4370) antibody, anti-phospho-p38 MAPK (Thr^180/Tyr^182) (D3F9) (CST, cat. no. 4511) antibody, anti-SAPK/JNK antibody (CST, cat. no. 9252), anti-p44/42 MAPK (ERK1/2) (137F5) antibody (CST, cat. no. 4695), anti-p38 MAPK antibody (CST, cat. no. 9212), anti-DUSP8 antibody (Abcam, cat. no. ab198175) or anti-c-MAF (BLR045F) antibody (Abcam, cat. no. ab243901). […] Chemiluminescence was detected using the Western Lightning Chemiluminescence system (Thermo Scientific, USA) and ImageQuant™ LAS 4000 biomolecular imager (GE Healthcare Life Sciences, USA). Band intensity in images generated with the LAS 4000 was quantified using NIH Image J. […]"}, "[2]": {"tested_on": "endothelial cells", "details": "shown previously, cited from earlier work"}, "[3]": {"tested_on": "CD3", "assay": "Immunohistochemistry of B16F10 tumors (Day 17), CD3", "assay_type": "in vivo, mouse", "details": "B16F10 tumors Day 17, 200 mg/kg i.p.", "excerpt": "Immunohistochemical staining and analyses. Rabbit monoclonal anti-CD3 (cat. no. ab16669; mouse, rat and human reactive), rabbit monoclonal anti-PD-1 (cat. no. ab214421), rabbit monoclonal anti-CD68 (cat. no. ab125212) antibodies were obtained from Abcam, rabbit monoclonal anti-phospho-ERK (Thr^202/Tyr^204) (cat. no. CST4370), rabbit monoclonal total ERK (cat. no. CST4695), antibodies were obtained from Cell Signaling Technology. Rabbit polyclonal anti-PD-L1 (cat. no. PA5-20343) antibody was obtained from ThermoFisher.\nFormalin fixed, paraffin embedded sections were prepared from tumors. Heat-induced epitope retrieval was applied to all deparaffinized sections (4 μm sections on Superfrost slides) with citrate buffer, pH 6.0 for 5 min at 110° C. Sections were blocked with Dual Endogenous Enzyme Block (DAKO, S2003) for 10 min and then with 2% skim milk for 20 min. Slides were incubated with primary antibody for 60 min at room temperature or overnight at 4° C. and then for 10 min with probe of MACH3 Rabbit AP-Polymer Detection solution (Biocare Medical, M3R533 G, H, L). […] Integrated optical density (IOD) or area of positive staining (red chromagen) was assessed using Image-Pro Plus software (Cybernetics, Bethesda, MD, USA). Positive staining was the average of quantitation in 4-8 fields of view under 20× or 40× objectives. […]"}, "[4]": {"tested_on": "PD-1", "assay": "Flow cytometry with anti-PD-1 antibodies, Jurkat T cells", "assay_type": "cell-based, human", "details": "for inhibition of PD-1 levels: time course (FIG. 17C)", "protocol": "Flow cytometry with anti-PD-1 antibodies. Jurkat T cells were grown in 6 well plates containing RPMI 1640 and 10% FBS. After 24 h, the cells were treated with various concentrations of BT2 or BT3 for 48 h. Alternatively, the cells were incubated with 3 μM BT2 for various times. After treatment, the cells were washed with PBS, and centrifuged at 300×g for 5 min, and resuspended at 5×10^6 cells/ml. The cells were then incubated with BV421 conjugated mouse anti-human CD279 (PD-1) (BD, cat. no. 562516) or BV421 conjugated mouse IgG1 (BD, cat. no. 562438) for 45 min at 22° C. Cells were then washed twice with 1 ml of Stain Buffer, centrifuged and pellets were resuspended in 0.5 ml Stain Buffer. Stained cell suspensions were analyzed by flow cytometry using a BD FACSCanto (II).\nJurkat T cells express PD-1 (Yi et al., 2023) and are widely used as model human T cells (e.g., Repas et al., 2022). […] BT2's effects were not only dose-dependent but time-dependent. BT2 (3 μM) inhibited PD-1 levels by 50% after 24 h and by 80% after 48 h (FIG. 17C)."}},
  "data": [
    {"smiles": "CCOC(=O)Nc1ccc2c(c1)C(=O)N(CC)c1ccccc1O2", "note": "[BT2, (10-ethyl-11-oxo-10,11-dihydro-dibenzo[b,f][1,4]oxazepin-2-yl)-carbamic acid ethyl ester]", "values": [
      {"measurement": "levels of p38 phosphorylation", "setting": "[1]", "result": "no effect"},
      {"measurement": "ERK phosphorylation and expression of FosB/ΔFosB and VCAM-1, and VEGF", "setting": "[2]; endothelial cells", "result": "inhibit"},
      {"measurement": "endothelial cell proliferation and migration, angiogenesis and wound repair", "setting": "[2]", "result": "inhibit"},
      {"measurement": "CD3+ staining in the tumor periphery (within 250 μm) (IHC)", "setting": "[3]", "result": "stimulated CD3^+ staining in the tumor periphery"},
      {"measurement": "reduction of PD-1 expression", "setting": "[4]; 0.1 μM, 48 h (FIG. 17A)", "result": 50, "unit": "%"},
      {"measurement": "inhibition of PD-1 levels", "setting": "[4]; 3 μM, 24 h", "result": 50, "unit": "%"},
      {"measurement": "reduction of PD-1 expression", "setting": "[4]; 3 μM, 48 h, dose response (FIG. 17A)", "result": 80, "unit": "%"},
      {"measurement": "inhibition of PD-1 levels", "setting": "[4]; 3 μM, 48 h", "result": 80, "unit": "%"}
    ]}
  ]
}
